Data: patent US20060063784A1, “Method of using substituted pyrazolo [1,5-a] pyrimidines” (priority 2004, published 2006)
pIC50: −log10 of the molar value. Where two headings read alike, the source gives them in different places.

What was measured:
LoVo Colon cell line = test: Cytotoxicity assay using LoVo colon cell line, SRB; format: cell-based; settings: Homo sapiens, 96 h, read-out: Inhibition of LoVo
Procedure: Cytotoxicity Assay Using LoVo Colon Cell Line: • 1. LoVo Colon cell lines were cultured in RPMI 1640 medium (Gibco/Invitrogen Life Sciences) supplemented with 10% fetal bovine serum (FBS, Gibco) and 50 μg/ml entamicin (Gibco). Cells were maintained at 37° C. under 7% CO2. • 2. Cells were seeded in 96-well microtiter plates (Corning/Costar) in a volume of 0.15 ml of growth medium (4000 cells/well). Plates were incubated at 37° C. overnight (18-24 hours). • 3. Serial dilutions of the test agent were added to each well. Dilutions were prepared in growth medium. One of two dose ranges was used: 5 pM to 20 μM or 170 pg/ml to 10 μg/ml. Cells were incubated with the test compounds for 4 days at 37° C. • 4. Surviving cells were processed using the SRB asay, as described above.
5. The drug concentration that inhibits cell proliferation by 50% relative to untreated controls (IC50) was determined from cytotoxicity curves using the LSW Toolbox graphing application.

[1] = tested on: 80S14 (p21-deficient) cells; test: Cytotoxicity assay using isogenic cell lines: IC50 in 80S14 (p21-deficient) cells, SRB; format: cell-based, human; settings: Homo sapiens; for pIC50: 120 h, SRB; for IC50: 80S14, 120 h
How it was run: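 IC50 is the concentration halving proliferation relative to untreated controls, read from SRB absorbance (560 nm) after TCA fixation. Test agent dilutions (5 pM–50 μM or 170 pg/ml–10 μg/ml) were left on p21-deficient 80S14 cells (12,000/well, pre-incubated overnight) for 5 days at 37 °C.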

[2] = Cellular activity in LoVo cell, 4 days incubation, SRB
[3] = 80S14 (p21-deficient) cells, 5 days, class symbols, read-out: IC50 for 80S14
[4] = LoVo colon cells, 4 days incubation, SRB
[5] = 80S14 p21-deficient cells, 5 days incubation, read-out: IC50 for 80SI4

Row | Structure (SMILES) | pIC50 (LoVo Colon cell line; [2]) | pIC50 [1, 3] | other results
1 | CCNc1cccc(-c2ccnc3c(C(=O)c4cccs4)cnn23)c1 [Example 422, {7-[3-(Ethylamino)phenyl]pyrazolo[1,5-a]pyrimidin-3-yl}(thien-2-yl)methanone] | 6.00 to 7.00 | 5.00 to 6.00 | –
2 | O=C(c1cccs1)c1cnn2c(-c3cccc(NC(=O)C4CCCC4)c3)ccnc12 [Example 283, N-{3-[3-(2-Thienylcarbonyl)pyrazolo[1,5-a]pyrimidin-7-yl]phenyl}cyclopentanecarboxamide] | > 7.00 | > 6.00 | –
3 | CCCNc1cccc(-c2ccnc3c(C(=O)c4cccs4)cnn23)c1 [Example 267, [7-[3-(Propylamino)phenyl]pyrazolo[1,5-a]pyrimidin-3-yl]-2-thienyl-methanone] | 6.00 to 7.00 | 5.00 to 6.00 | –
4 | CC(C)=CCOC(=O)Nc1cccc(-c2ccnc3c(C(=O)c4cccs4)cnn23)c1 [Example 177, 3-methylbut-2-enyl 3-[3-(thien-2-ylcarbonyl)pyrazolo[1,5-a]pyrimidin-7-yl]phenylcarbamate] | – | – | pIC50 (LoVo Colon cell line; [4]): > 7.00; pIC50 [1, 5]: 5.00 to 6.00
5 | Cc1ccccc1C(=O)Nc1cccc(-c2ccnc3c(C(=O)c4cccs4)cnn23)c1 [Example 94, 2-methyl-N-{3-[3-(thien-2-ylcarbonyl)pyrazolo[1,5-a]pyrimidin-7-yl]phenyl}benzamide] | – | – | pIC50 (LoVo Colon cell line; [4]): > 7.00; pIC50 [1, 5]: > 6.00
6 | O=C(Nc1ccc(Cl)c(-c2ccnc3c(C(=O)c4cccs4)cnn23)c1)c1ccccc1 [Example 341, N-{4-Chloro-3-[3-(thien-2-ylcarbonyl)pyrazolo[1,5-a]pyrimidin-7-yl]phenyl}benzamide] | 6.00 to 7.00 | 5.00 to 6.00 | –
7 | O=C(c1cccs1)c1cnn2c(-c3cccc(NCC=C(c4ccccc4)c4ccccc4)c3)ccnc12 [Example 399, (7-{3-[(3,3-Diphenylprop-2-enyl)amino]phenyl}pyrazolo[1,5-a]pyrimidin-3-yl)(thien-2-yl)methanone] | 4.70 to 6.00 | 4.30 to 5.00 | –
8 | O=C(c1cccs1)c1cnn2c(-c3cccc(NCc4ccco4)c3)ccnc12 [Example 367, (7-{3-[(2-Furylmethyl)amino]phenyl}pyrazolo[1,5-a]pyrimidin-3-yl)(thien-2-yl)methanone] | 6.00 to 7.00 | 5.00 to 6.00 | –
9 | O=C(Nc1cc(-c2ccnc3c(C(=O)c4cccs4)cnn23)ccc1F)OCCCl [Example 381, 2-Chloroethyl 2-fluoro-5-[3-(thien-2-ylcarbonyl)pyrazolo[1,5-a]pyrimidin-7-yl]phenylcarbamate] | – | – | pIC50 (LoVo Colon cell line; LoVo): > 7.00; IC50 ([1]; read-out: IC50 for 80S14 (uM)): < 1 µM
10 | O=C(O)CCCC(=O)Nc1cccc(-c2ccnc3c(C(=O)c4cccs4)cnn23)c1 [Example 444, 5-Oxo-5-({3-[3-(thien-2-ylcarbonyl)pyrazolo[1,5-a]pyrimidin-7-yl]phenyl}amino)pentanoic acid] | 4.70 to 6.00 | 4.30 to 5.00 | –
11 | CC/C=C(\C)CNc1cccc(-c2ccnc3c(C(=O)c4cccs4)cnn23)c1 [Example 426, [7-(3-{[(2E)-2-Methylpent-2-enyl]amino}phenyl)pyrazolo[1,5-a]pyrimidin-3-yl](thien-2-yl)methanone] | 6.00 to 7.00 | 5.00 to 6.00 | –
12 | C=CCOC(=O)Nc1cccc(-c2ccnc3c(C(=O)c4cccs4)cnn23)c1 [Example 14, allyl 3-[3-(thien-2-ylcarbonyl)pyrazolo[1,5-a]pyrimidin-7-yl]phenylcarbamate] | – | – | pIC50 (LoVo Colon cell line; LoVo): > 7.00; IC50 ([1]; read-out: IC50 for 80SI4 (uM)): < 1 µM
13 | CC(C)OC(=O)Nc1cc(-c2ccnc3c(C(=O)c4cccs4)cnn23)ccc1F [Example 347, Isopropyl 2-fluoro-5-[3-(thien-2-ylcarbonyl)pyrazolo[1,5-a]pyrimidin-7-yl]phenylcarbamate] | – | – | pIC50 (LoVo Colon cell line; LoVo): > 7.00; IC50 ([1]; read-out: IC50 for 80S14 (uM)): < 1 µM
14 | Cc1cc(C)cc(-c2cnn3c(-c4cccc(NC(=O)CC(C)C)c4)ccnc23)c1 [Example 476, N-{3-[3-(3,5-Dimethylphenyl)pyrazolo[1,5-a]pyrimidin-7-yl]phenyl}-3-methylbutanamide] | > 7.00 | > 6.00 | –
15 | O=C(c1cccs1)c1cnn2c(-c3cccc(N4CCCC4=O)c3)ccnc12 [Example 437, 1-{3-[3-(Thien-2-ylcarbonyl)pyrazolo[1,5-a]pyrimidin-7-yl]phenyl}pyrrolidin-2-one] | > 7.00 | > 6.00 | –
16 | CC(CC(=O)O)CC(=O)Nc1cccc(-c2ccnc3c(C(=O)c4cccs4)cnn23)c1 (stereo not drawn) [Example 445, 3-Methyl-5-oxo-5-({3-[3-(thien-2-ylcarbonyl)pyrazolo[1,5-a]pyrimidin-7-yl]phenyl}amino)pentanoic acid] | 4.70 to 6.00 | 4.30 to 5.00 | –
17 | O=C(CSc1ccncc1)Nc1cccc(-c2ccnc3c(C(=O)c4cccs4)cnn23)c1 [Example 449, 2-(Pyridin-4-ylthio)-N-{3-[3-(thien-2-ylcarbonyl)pyrazolo[1,5-a]pyrimidin-7-yl]phenyl}acetamide] | 6.00 to 7.00 | 4.30 to 5.00 | –
18 | CCCC(=O)Nc1cccc(-c2ccnc3c(C(=O)c4cccs4)cnn23)c1 [Example 148, N-{3-[3-(thien-2-ylcarbonyl)pyrazolo[1,5-a]pyrimidin-7-yl]phenyl}butanamide] | – | – | pIC50 (LoVo Colon cell line; LoVo): > 7.00; IC50 ([1]; read-out: IC50 for 80SI4 (uM)): < 1 µM
19 | O=C(c1cccs1)c1cnn2c(-c3cccc(N(C(=O)c4c(Cl)cccc4Cl)C(=O)c4c(Cl)cccc4Cl)c3)ccnc12 [Example 391, 2,6-Dichloro-N-(2,6-dichlorobenzoyl)-N-{3-[3-(thien-2-ylcarbonyl)pyrazolo[1,5-a]pyrimidin-7-yl]phenyl}benzamide] | 4.70 to 6.00 | 4.30 to 5.00 | –
20 | O=C(c1cccs1)c1cnn2c(-c3cccc(-c4ccc(CNCCN5CCOCC5)cc4)c3)ccnc12 [Example 461, [7-(4′-{[(2-Morpholin-4-ylethyl)amino]methyl}-1,1′-biphenyl-3-yl)pyrazolo[1,5-a]pyrimidin-3-yl](thien-2-yl)methanone] | 6.00 to 7.00 | 5.00 to 6.00 | –
21 | O=C(Nc1cccc(-c2ccnc3c(C(=O)c4cccs4)cnn23)c1)c1ccccc1 [Example 284, N-{3-[3-(2-Thienylcarbonyl)pyrazolo[1,5-a]pyrimidin-7-yl]phenyl}benzamide] | > 7.00 | > 6.00 | –
22 | CC(C)CC(=O)Nc1cccc(-c2ccnc3c(-c4ccc(Cl)c(Cl)c4)cnn23)c1 [Example 474, N-{3-[3-(3,4-Dichlorophenyl)pyrazolo[1,5-a]pyrimidin-7-yl]phenyl}-3-methylbutanamide] | 4.70 to 6.00 | 4.30 to 5.00 | –
23 | CC(C)CC(=O)Nc1cc(-c2ccnc3c(C(=O)c4cccs4)cnn23)cs1 [Example 351, 3-Methyl-N-{4-[3-(thien-2-ylcarbonyl)pyrazolo[1,5-a]pyrimidin-7-yl]thien-2-yl}butanamide] | 4.70 to 6.00 | 5.00 to 6.00 | –
24 | O=C(CCc1ccncc1)Nc1cccc(-c2ccnc3c(C(=O)c4cccs4)cnn23)c1 [Example 440, 3-Pyridin-4-yl-N-{3-[3-(thien-2-ylcarbonyl)pyrazolo[1,5-a]pyrimidin-7-yl]phenyl}propanamide] | 6.00 to 7.00 | 5.00 to 6.00 | –
25 | CCc1ccc(-c2cccc(-c3ccnc4c(C(=O)c5cccs5)cnn34)c2)cc1 [Example 456, [7-(4′-Ethyl-1,1′-biphenyl-3-yl)pyrazolo[1,5-a]pyrimidin-3-yl](thien-2-yl)methanone] | > 7.00 | > 6.00 | –
26 | O=C(Nc1cccc(-c2ccnc3c(C(=O)c4cccs4)cnn23)c1)OCCCN1CCOCC1 [Example 425, 3-Morpholin-4-ylpropyl 3-[3-(thien-2-ylcarbonyl)pyrazolo[1,5-a]pyrimidin-7-yl]phenylcarbamate] | 6.00 to 7.00 | 5.00 to 6.00 | –
27 | CC(C)CC(=O)Nc1cccc(-c2ccnc3c(-c4ccc(Cl)cc4)cnn23)c1 [Example 472, N-{3-[3-(4-Chlorophenyl)pyrazolo[1,5-a]pyrimidin-7-yl]phenyl}-3-methylbutanamide] | 4.70 to 6.00 | 4.30 to 5.00 | –
28 | O=C(Nc1cccc(-c2ccnc3c(C(=O)c4cccs4)cnn23)c1)OCC1CCCCC1 [Example 175, cyclohexylmethyl 3-[3-(thien-2-ylcarbonyl)pyrazolo[1,5-a]pyrimidin-7-yl]phenylcarbamate] | – | – | pIC50 (LoVo Colon cell line; [4]): > 7.00; pIC50 [1, 5]: > 6.00
29 | O=C(c1cccs1)c1cnn2c(-c3cccc(-c4ccn(CCN5CCCC5)n4)c3)ccnc12 [Example 520, (7-{3-[1-(2-Pyrrolidin-1-ylethyl)-1H-pyrazol-3-yl]phenyl}pyrazolo[1,5-a]pyrimidin-3-yl)(thien-2-yl)methanone] | 6.00 to 7.00 | 5.00 to 6.00 | –
30 | CC(C)NC(=O)Nc1ccc(-c2ccnc3c(C(=O)c4cccs4)cnn23)s1 [Example 329, N-Isopropyl-N′-{5-[3-(thien-2-ylcarbonyl)pyrazolo[1,5-a]pyrimidin-7-yl]thien-2-yl}urea] | 6.00 to 7.00 | 5.00 to 6.00 | –
